From ChEMBL document CHEMBL1149449 (Bioorg Med Chem Lett, 2006)

Columns and labels:
[1] = biological target: Human immunodeficiency virus type 1 protease (Human immunodeficiency virus 1) (UniProt Q72874); assay: Ratio of inhibitory effect against HIV1 protease in cellular over isolated enzyme assay; type: functional
[2] = test system: Human immunodeficiency virus 1; assay: Antiviral activity in cells infected with wild-type HIV1; type: functional; details: read-out: CIC95
[3] = biological target: Human immunodeficiency virus type 1 protease (Human immunodeficiency virus 1, UniProt Q72874); assay: Inhibitory activity against isolated wild-type HIV1 protease
[4] = test system: Human immunodeficiency virus 1; assay: Antiviral activity in cells infected with wild-type HIV1 1002-60C mutant in presence of NHS; type: functional; details: Human immunodeficiency virus 1, 1002-60C; read-out: CIC95
[5] = test system: Human immunodeficiency virus 1; assay: Antiviral activity in cells infected with wild-type HIV1 4X mutant; type: functional; details: Human immunodeficiency virus 1, 4X; read-out: CIC95
[6] = test system: Human immunodeficiency virus 1; assay: Antiviral activity in cells infected with wild-type HIV1 NL4-3 in presence of NHS; type: functional; details: Human immunodeficiency virus 1, NL4-3; read-out: CIC95
[7] = test system: Human immunodeficiency virus 1; assay: Antiviral activity in cells infected with wild-type HIV1 1002-60C mutant; type: functional; details: Human immunodeficiency virus 1, 1002-60C; read-out: CIC95
[8] = test system: Human immunodeficiency virus 1; assay: Antiviral activity in cells infected with wild-type HIV1 NL4-3 in presence of FBS; type: functional; details: Human immunodeficiency virus 1, NL4-3; read-out: CIC95
[9] = test system: Human immunodeficiency virus 1; assay: Antiviral activity in cells infected with wild-type HIV1 H93B in presence of FBS; type: functional; details: Human immunodeficiency virus 1, H93B; read-out: CIC95
[10] = test system: Human immunodeficiency virus 1; assay: Antiviral activity in cells infected with wild-type HIV1 1026-60C mutant; type: functional; details: Human immunodeficiency virus 1, 1026-60C; read-out: CIC95
[11] = test system: Human immunodeficiency virus 1; assay: Antiviral activity in cells infected with wild-type HIV1 1026-60C mutant in presence of NHS; type: functional; details: Human immunodeficiency virus 1, 1026-60C; read-out: CIC95
[12] = test system: Human immunodeficiency virus 1; assay: Antiviral activity in cells infected with wild-type HIV1 4X mutant in presence of NHS; type: functional; details: Human immunodeficiency virus 1, 4X; read-out: CIC95
[13] = test system: Human immunodeficiency virus 1; assay: Antiviral activity in cells infected with wild-type HIV1 H93B in presence of NHS; type: functional; details: Human immunodeficiency virus 1, H93B; read-out: CIC95

Row | Structure (SMILES) | Ratio CIC95/IC50 [1] | IC95 [2] | IC50 [3] | IC95 [4] | IC95 [5] | IC95 [6] | IC95 [7] | IC95 [8] | IC95 [9] | IC95 [10] | IC95 [11] | IC95 [12] | IC95 [13]
1 | O=C(N[C@@H](Cc1ccccc1)[C@@H](O)C[C@]1(Cc2ccccc2)N=CC([C@@H]2CNC(=O)c3ccccc32)=C1O)O[C@H]1CCOC1 | 137 | 781 nM | 5.7 nM |  |  |  |  |  |  |  |  |  | 
2 | CC(C)(C)CC(=O)N[C@@H](Cc1ccccc1)[C@@H](O)C[C@]1(Cc2ccccc2)N=CC(C2c3ccccc3[C@H]3NC(=O)OC23)=C1O (some centres undefined) | 32.5 | 3120 nM | 96 nM |  |  |  |  |  |  |  |  |  | 
3 | NC(=O)C[C@H]1CC(C2=C(O)[C@](Cc3ccccc3)(C[C@H](O)[C@H](Cc3ccccc3)NC(=O)O[C@H]3CCOC3)N=C2)c2ccccc21 (some centres undefined) |  | 781 nM |  | 2500 nM | 625 nM | 625 nM | 1250 nM | 312 nM | 1250 nM | 312 nM | 625 nM | 1250 nM | 1250 nM
4 | CC(C)(C)OC(=O)N[C@@H](Cc1ccccc1)[C@@H](O)C[C@]1(Cc2ccccc2)N=CC(C2c3ccccc3[C@H]3NC(=O)OC23)=C1O (some centres undefined) | 80 | 200 nM | 2.5 nM | 10000 nM | 2500 nM | 625 nM | 2500 nM | 156 nM | 156 nM | 625 nM | 1250 nM | 5000 nM | 312 nM
5 | CC(C)(C)CC(=O)N[C@@H](Cc1ccccc1)[C@@H](O)C[C@]1(Cc2ccccc2)N=CC(C2C[C@H](CC(N)=O)c3ccccc32)=C1O (some centres undefined) |  | 12500 nM | > 250 nM |  |  |  |  |  |  |  |  |  | 
6 | CC(C)(C)NC(=O)[C@@H]1CN(Cc2cccnc2)CCN1C[C@@H](O)C[C@@H](Cc1ccccc1)C(=O)N[C@H]1c2ccccc2C[C@H]1O |  | 25 nM |  | 400 nM | 100 nM | 50 nM | 400 nM | 50 nM | 50 nM | 400 nM | 400 nM | 100 nM | 25 nM
7 | O=C(N[C@@H](Cc1ccccc1)[C@@H](O)C[C@]1(Cc2ccccc2)N=CC([C@H]2c3ccccc3C[C@H]2O)=C1O)O[C@H]1CCOC1 | 50 | 100 nM | 2 nM | 1250 nM | 625 nM | 156 nM | 1250 nM | 78 nM | 156 nM | 156 nM | 312 nM | 1250 nM | 156 nM
8 | CC(C)(C)OC(=O)N[C@@H](Cc1ccccc1)[C@@H](O)C[C@]1(Cc2ccccc2)N=CC(C2C[C@H](CC(N)=O)c3ccccc32)=C1O (some centres undefined) |  | > 400 nM | 20.5 nM |  |  |  |  |  |  |  |  |  | 
9 | NC(=O)O[C@@H]1Cc2ccccc2[C@@H]1C1=C(O)[C@](Cc2ccccc2)(C[C@H](O)[C@H](Cc2ccccc2)NC(=O)O[C@H]2CCOC2)N=C1 | 125 | 250 nM | 2 nM |  |  |  |  |  |  |  |  |  | 
10 | O=C1N[C@@H]2c3ccccc3C(C3=C(O)[C@](Cc4ccccc4)(C[C@H](O)[C@H](Cc4ccccc4)NC(=O)O[C@H]4CCOC4)N=C3)C2O1 (some centres undefined) | 909 | 400 nM | 0.44 nM | 1250 nM | 156 nM | 625 nM | 1250 nM | 625 nM | 625 nM | 312 nM | 312 nM | 312 nM | 625 nM
